Results: patent publication US20140228287A1, “1-[(3-CYANO-PYRIDIN-2-YL)METHYL]-3-METHYL-7-(2-BUTYN-1-YL)-8-[3-(R)-AMINO-PIPERIDIN-1-YL]-AXANTHINE FOR THE TREATMENT OF A METABOLIC DISORDER OF A PREDOMINANTLY CARNIVOROUS NON-HUMAN ANIMAL” (BOEHRINGER INGELHEIM VETMEDICA GMBH, priority 2010, published 2014)
Structures can show the parent of a compound that is named as a salt. Where two headings read alike, the source gives them in different places.

How the values were obtained:
DPP IV = target: T1, DPP IV (Felis catus, UniProt Q9N2I7); experiment: Exploratory multiple dose PK/PD (1.0/3.0/9.0 mg/animal, 14 days) in cats: DPP IV activity; type: in vivo, cat; settings: for response vs control in vivo at 9 mg/animal / response vs control in vivo at 1 mg/animal / response vs control in vivo at 3 mg/animal: read-out: DPP IV activity in cat plasma; for response vs control in vivo at 1 mg/animal: head 1 mg/animal (title 1.0 mg/animal); for response vs control in vivo at 3 mg/animal: head 3 mg/animal (title 3.0 mg/animal)
T1 construct: Blood samples for the determination of this compound and DPP IV activity were collected; from tissue; host or cells: plasma of domestic short hair / purpose-bred cats dosed orally
T1 sequence (Q9N2I7 38-765 limits assumed): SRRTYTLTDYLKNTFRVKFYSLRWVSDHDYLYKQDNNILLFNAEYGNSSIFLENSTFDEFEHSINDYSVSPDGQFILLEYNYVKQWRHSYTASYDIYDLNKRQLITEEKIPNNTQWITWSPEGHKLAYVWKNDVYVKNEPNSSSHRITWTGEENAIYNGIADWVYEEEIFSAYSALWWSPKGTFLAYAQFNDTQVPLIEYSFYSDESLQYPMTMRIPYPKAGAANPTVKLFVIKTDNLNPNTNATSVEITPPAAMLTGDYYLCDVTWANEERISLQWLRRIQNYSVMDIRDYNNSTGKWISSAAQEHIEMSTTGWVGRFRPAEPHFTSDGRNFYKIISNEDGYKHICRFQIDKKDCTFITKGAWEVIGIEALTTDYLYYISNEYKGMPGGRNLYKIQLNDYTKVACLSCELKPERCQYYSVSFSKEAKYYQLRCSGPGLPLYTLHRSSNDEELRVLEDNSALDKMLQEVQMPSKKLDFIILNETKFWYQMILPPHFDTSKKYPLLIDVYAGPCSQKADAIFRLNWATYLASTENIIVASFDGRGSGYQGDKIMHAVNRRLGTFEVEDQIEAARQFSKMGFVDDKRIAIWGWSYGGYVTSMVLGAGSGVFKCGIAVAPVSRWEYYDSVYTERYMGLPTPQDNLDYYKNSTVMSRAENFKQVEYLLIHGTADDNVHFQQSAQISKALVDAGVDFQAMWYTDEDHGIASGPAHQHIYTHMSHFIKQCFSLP
Description: The aim of this study was to investigate the PK/PD effects of 1-[(3-cyano-pyridin-2-yl)methyl]-3-methyl-7-(2-butyn-1-yl)-8-[3-(R)-amino-piperidin-1-yl]-xanthine in cats following repeated oral administration of 0, 1, 3 and 9 mg/animal over 14 days corresponding to a dose of 0, 0.25, 0.75 and 2.25 mg/kg body weight for a cat weighing 4 kg. (Dosages were based on the free base: 1 mg 1-[(3-cyano-pyridin-2-yl)methyl]-3-methyl-7-(2-butyn-1-yl)-8-[3-(R)-amino-piperidin-1-yl]-xanthine monohydrochloride corresponds to 0.923 mg 1-[(3-cyano-pyridin-2-yl)methyl]-3-methyl-7-(2-butyn-1-yl)-8-[3-(R)-amino-piperidin-1-yl]-xanthine free base).
For this purpose, twelve clinically healthy male adult domestic short hair cats with a body weight range of 3.5-4.8 kg were used. The animals were randomly allocated to 4 groups, 3 animals per group. All animals were treated once daily orally for 14 days (i.e. on days 0-13). The test article was administered via capsules at doses of 1 (group II), 3 (group III) or 9 (group IV) mg of the monohydrochloride compound per animal; group I received placebo serving as controls. Blood samples for PK and PD (DPP IV activity) investigations were drawn at 0 h (i.e. prior to the 1st treatment), 0.5, 1, 2, 4, 8, 12 and 24 h after the 1st treatment as well as 24 h after the 3rd, 5th, 7th, 9th, 11th and 13th treatment and 0.5, 1, 2, 4, 8, 12 and 24 h after the 14th treatment.

plasma DPP IV [1] = target: T2, plasma DPP IV (Rattus norvegicus, UniProt P14740); experiment: Inhibition of plasma DPP IV activity in vitro, rat plasma; type: biochemical
T2 construct: from tissue
T2 sequence (P14740 37-767 limits assumed): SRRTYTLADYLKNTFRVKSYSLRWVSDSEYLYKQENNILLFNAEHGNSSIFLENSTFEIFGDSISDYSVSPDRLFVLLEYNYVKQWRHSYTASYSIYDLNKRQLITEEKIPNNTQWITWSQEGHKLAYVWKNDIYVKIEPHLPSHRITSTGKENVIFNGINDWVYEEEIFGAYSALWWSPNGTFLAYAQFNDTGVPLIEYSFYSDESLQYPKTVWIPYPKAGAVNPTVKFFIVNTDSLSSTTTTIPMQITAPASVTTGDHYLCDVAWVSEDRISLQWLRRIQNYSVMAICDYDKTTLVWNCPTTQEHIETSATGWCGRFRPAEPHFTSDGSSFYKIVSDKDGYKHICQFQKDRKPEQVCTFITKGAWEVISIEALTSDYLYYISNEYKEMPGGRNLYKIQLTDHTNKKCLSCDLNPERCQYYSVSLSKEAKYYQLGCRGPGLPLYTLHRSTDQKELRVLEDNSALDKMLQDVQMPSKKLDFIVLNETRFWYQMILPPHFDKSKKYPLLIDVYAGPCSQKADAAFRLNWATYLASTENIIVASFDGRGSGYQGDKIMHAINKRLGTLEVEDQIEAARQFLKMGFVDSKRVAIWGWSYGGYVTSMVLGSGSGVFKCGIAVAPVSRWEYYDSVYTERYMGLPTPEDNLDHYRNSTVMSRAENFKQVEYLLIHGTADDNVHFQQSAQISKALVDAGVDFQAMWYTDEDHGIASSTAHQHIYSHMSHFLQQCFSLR
Description: (§1) Studies were also conducted to assess the inhibitory effect of this compound on plasma DPP IV activity in several species.

plasma DPP IV [2] = target: T3, plasma DPP IV (Mus musculus, UniProt P28843); experiment: Inhibition of plasma DPP IV activity in vitro, mouse plasma; type: biochemical
T3 construct: from tissue; host or cells: mouse plasma
T3 sequence (P28843 37-760 limits assumed): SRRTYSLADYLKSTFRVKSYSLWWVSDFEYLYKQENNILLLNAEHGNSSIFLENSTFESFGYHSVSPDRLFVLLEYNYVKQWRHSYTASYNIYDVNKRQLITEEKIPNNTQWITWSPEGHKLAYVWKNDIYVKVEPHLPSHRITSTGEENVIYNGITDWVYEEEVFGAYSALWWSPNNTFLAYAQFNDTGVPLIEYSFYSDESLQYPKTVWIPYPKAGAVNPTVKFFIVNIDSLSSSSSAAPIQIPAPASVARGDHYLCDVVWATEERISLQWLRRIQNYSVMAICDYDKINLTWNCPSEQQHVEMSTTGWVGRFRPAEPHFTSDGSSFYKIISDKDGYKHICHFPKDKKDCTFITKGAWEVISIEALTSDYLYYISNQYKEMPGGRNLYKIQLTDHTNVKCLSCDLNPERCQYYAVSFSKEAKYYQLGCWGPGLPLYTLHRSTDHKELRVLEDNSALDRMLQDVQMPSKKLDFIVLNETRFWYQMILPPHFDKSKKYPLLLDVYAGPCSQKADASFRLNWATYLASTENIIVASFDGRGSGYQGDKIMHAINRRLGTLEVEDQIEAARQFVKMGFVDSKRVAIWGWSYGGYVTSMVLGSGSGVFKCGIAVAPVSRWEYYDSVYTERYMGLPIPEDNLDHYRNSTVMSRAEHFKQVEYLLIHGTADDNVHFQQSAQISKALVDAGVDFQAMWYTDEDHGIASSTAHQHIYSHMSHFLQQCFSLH
Description: as §1

[3] = 312 h, once daily oral 14 days, 312 h
[4] = 312.5 h, once daily oral 14 days, 312.5 h
[5] = 313 h, once daily oral 14 days, 313 h
[6] = 314 h, once daily oral 14 days, 314 h
[7] = 316 h, once daily oral 14 days, 316 h
[8] = 320 h, once daily oral 14 days, 320 h
[9] = 324 h, once daily oral 14 days, 324 h
[10] = 336 h, once daily oral 14 days, 336 h

## CC#CCn1c(N2CCC[C@@H](N)C2)nc2c1c(=O)n(Cc1ncccc1C#N)c(=O)n2C [1-[(3-cyano-pyridin-2-yl)methyl]-3-methyl-7-(2-butyn-1-yl)-8-[3-(R)-amino-piperidin-1-yl]-xanthine monohydrochloride]
DPP IV; 264 h, head 9 mg/animal (title 9.0 mg/animal), once daily oral 14 days, 264 h
  response vs control in vivo at 9 mg/animal: 14%
DPP IV; [3]
  response vs control in vivo at 1 mg/animal: 61.3%
  response vs control in vivo at 3 mg/animal: 34%
DPP IV; 312 h, head 9 mg/animal (title 9.0 mg/animal), once daily oral 14 days, 312 h
  response vs control in vivo at 9 mg/animal: 17.3%
DPP IV; [4]
  response vs control in vivo at 1 mg/animal: 14%
  response vs control in vivo at 3 mg/animal: 9%
DPP IV; 312.5 h, head 9 mg/animal (title 9.0 mg/animal), once daily oral 14 days, 312.5 h
  response vs control in vivo at 9 mg/animal: 10%
DPP IV; [5]
  response vs control in vivo at 1 mg/animal: 14%
  response vs control in vivo at 3 mg/animal: 8.3%
DPP IV; 313 h, head 9 mg/animal (title 9.0 mg/animal), once daily oral 14 days, 313 h
  response vs control in vivo at 9 mg/animal: 7.7%
DPP IV; [6]
  response vs control in vivo at 1 mg/animal: 13.3%
  response vs control in vivo at 3 mg/animal: 8.7%
DPP IV; 314 h, head 9 mg/animal (title 9.0 mg/animal), once daily oral 14 days, 314 h
  response vs control in vivo at 9 mg/animal: 7.7%
DPP IV; [7]
  response vs control in vivo at 1 mg/animal: 14.7%
  response vs control in vivo at 3 mg/animal: 9.7%
DPP IV; 316 h, head 9 mg/animal (title 9.0 mg/animal), once daily oral 14 days, 316 h
  response vs control in vivo at 9 mg/animal: 8%
DPP IV; [8]
  response vs control in vivo at 1 mg/animal: 22.3%
  response vs control in vivo at 3 mg/animal: 12.3%
DPP IV; 320 h, head 9 mg/animal (title 9.0 mg/animal), once daily oral 14 days, 320 h
  response vs control in vivo at 9 mg/animal: 10.3%
DPP IV; [9]
  response vs control in vivo at 1 mg/animal: 32.3%
  response vs control in vivo at 3 mg/animal: 15%
DPP IV; 324 h, head 9 mg/animal (title 9.0 mg/animal), once daily oral 14 days, 324 h
  response vs control in vivo at 9 mg/animal: 12%
DPP IV; [10]
  response vs control in vivo at 1 mg/animal: 67.7%
  response vs control in vivo at 3 mg/animal: 31.3%
DPP IV; 336 h, head 9 mg/animal (title 9.0 mg/animal), once daily oral 14 days, 336 h
  response vs control in vivo at 9 mg/animal: 18.7%
DPP IV; group II (1 mg per animal)
  time up to which mean DPP IV values remained ≦20% after 1st treatment: 8 h
  time up to which mean DPP IV values remained ≦20% after the 14th treatment: 4 h
DPP IV; group II (1 mg per animal), at 1 h
  minimum mean DPP IV values after treatment on day 0: 9%
DPP IV; group II (1 mg/cat)
  mean DPP IV activity, range 24 h after 3rd-13th treatment (72-312 h): 33-63%
DPP IV; group III (3 mg per animal)
  time up to which mean DPP IV values remained ≦20% after 1st treatment: 12 h
  time up to which mean DPP IV values remained ≦20% after the 14th treatment: 12 h
DPP IV; group III (3 mg per animal), at 2 and 4 h
  minimum mean DPP IV values after treatment on day 0: 8%
DPP IV; group III (3 mg/cat)
  mean DPP IV activity, range 24 h after 3rd-13th treatment (72-312 h): 19-41%
DPP IV; group IV (9 mg per animal)
  time up to which mean DPP IV values remained ≦20% after 1st treatment: 24 h
  time up to which mean DPP IV values remained ≦20% after the 14th treatment: 24 h
DPP IV; group IV (9 mg per animal), at 1 and 2 h
  minimum mean DPP IV values after treatment on day 0: 7%
DPP IV; group IV (9 mg/cat)
  mean DPP IV activity, range 24 h after 3rd-13th treatment (72-312 h): 14-18%
DPP IV; head 9 mg/animal (title 9.0 mg/animal), once daily oral 14 days, 312.5 h, monohydrochloride
  DPP IV activity in cat plasma: 10.0%
Plasma DPP IV [1]
  IC50: ~0.8 nM
Plasma DPP IV [2]
  IC50: ~1.7 nM
